The source of these data is PMC2694132 (Cancer research, 2009).

The conditions of series [1]: patients treated with SAHA; cited from earlier work.
The target in a further series is T1, UGT1A10 (Homo sapiens, UniProt Q9HAW8).
T1 sequence (Q9HAW8 26-530): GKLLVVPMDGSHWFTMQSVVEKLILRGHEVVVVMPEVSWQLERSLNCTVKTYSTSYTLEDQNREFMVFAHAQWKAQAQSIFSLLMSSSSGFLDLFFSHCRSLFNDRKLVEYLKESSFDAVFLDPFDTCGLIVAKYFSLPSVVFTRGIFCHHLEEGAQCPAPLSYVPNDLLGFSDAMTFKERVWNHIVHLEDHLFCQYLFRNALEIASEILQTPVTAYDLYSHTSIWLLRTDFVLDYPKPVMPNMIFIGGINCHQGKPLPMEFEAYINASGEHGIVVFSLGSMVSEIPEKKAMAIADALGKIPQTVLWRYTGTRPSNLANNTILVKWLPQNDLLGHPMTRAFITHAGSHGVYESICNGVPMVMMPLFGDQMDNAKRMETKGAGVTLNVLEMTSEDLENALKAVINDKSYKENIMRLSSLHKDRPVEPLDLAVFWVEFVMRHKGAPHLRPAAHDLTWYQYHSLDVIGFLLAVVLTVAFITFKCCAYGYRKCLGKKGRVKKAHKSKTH
Nature of the series: SAHA glucuronidation, wild-type UGT1A10. The class given is in vitro ADME.

Another series concerns the target T2, UGT2B4 (Homo sapiens, UniProt P06133).
T2 sequence (P06133 24-528): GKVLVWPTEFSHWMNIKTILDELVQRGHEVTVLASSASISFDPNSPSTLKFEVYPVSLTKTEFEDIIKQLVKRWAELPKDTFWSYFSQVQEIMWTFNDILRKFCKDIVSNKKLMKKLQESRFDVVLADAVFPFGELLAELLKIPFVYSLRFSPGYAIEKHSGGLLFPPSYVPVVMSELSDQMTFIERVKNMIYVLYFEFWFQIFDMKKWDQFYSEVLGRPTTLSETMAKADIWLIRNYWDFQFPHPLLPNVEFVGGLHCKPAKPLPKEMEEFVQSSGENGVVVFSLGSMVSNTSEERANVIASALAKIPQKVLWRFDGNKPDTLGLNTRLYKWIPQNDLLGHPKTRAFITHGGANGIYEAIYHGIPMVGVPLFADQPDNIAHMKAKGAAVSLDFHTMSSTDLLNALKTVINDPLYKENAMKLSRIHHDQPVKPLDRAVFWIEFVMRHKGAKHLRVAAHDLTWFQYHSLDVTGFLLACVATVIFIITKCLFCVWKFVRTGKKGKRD
The series is described as follows: SAHA glucuronidation screen, UGT2B4-overexpressing cell homogenate. As to conditions: 400 μg UGT-overexpressing cell homogenate, 1-h incubation. The class given is in vitro ADME.

In a further series the target is T3, UGT2B7 (Homo sapiens, UniProt P16662).
T3 sequence (P16662 24-529): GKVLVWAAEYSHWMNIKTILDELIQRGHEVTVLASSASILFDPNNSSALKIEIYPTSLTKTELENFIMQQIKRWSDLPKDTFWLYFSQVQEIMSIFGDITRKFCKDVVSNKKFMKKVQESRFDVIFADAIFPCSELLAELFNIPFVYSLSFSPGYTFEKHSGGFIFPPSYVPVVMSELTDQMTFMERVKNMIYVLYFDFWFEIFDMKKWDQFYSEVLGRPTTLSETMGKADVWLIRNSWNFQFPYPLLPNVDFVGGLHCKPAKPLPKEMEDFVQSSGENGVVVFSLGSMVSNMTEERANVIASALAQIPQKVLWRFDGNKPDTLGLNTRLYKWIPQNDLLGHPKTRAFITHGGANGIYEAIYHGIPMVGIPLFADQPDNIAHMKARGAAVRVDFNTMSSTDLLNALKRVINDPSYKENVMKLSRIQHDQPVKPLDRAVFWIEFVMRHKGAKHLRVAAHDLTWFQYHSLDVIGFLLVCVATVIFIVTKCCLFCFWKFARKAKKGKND
The series is described as follows: SAHA glucuronidation screen, UGT2B7-overexpressing cell homogenate. The class given is in vitro ADME.

The target of the next series is T4, UGT2B11 (Homo sapiens, UniProt O75310).
T4 sequence (O75310 22-529): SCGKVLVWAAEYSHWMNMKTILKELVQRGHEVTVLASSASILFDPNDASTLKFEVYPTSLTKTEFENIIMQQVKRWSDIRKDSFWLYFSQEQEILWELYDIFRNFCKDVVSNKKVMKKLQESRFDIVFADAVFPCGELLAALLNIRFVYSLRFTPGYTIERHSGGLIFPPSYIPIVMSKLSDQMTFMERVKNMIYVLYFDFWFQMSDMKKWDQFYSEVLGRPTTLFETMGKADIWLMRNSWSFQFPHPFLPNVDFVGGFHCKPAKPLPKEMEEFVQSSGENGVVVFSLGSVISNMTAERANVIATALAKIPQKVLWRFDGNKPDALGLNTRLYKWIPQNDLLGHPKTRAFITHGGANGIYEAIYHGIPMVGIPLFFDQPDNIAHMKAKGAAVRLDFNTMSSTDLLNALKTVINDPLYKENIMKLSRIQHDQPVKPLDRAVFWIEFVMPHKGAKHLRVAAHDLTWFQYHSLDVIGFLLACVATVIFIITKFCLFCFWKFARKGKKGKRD
The series is described as follows: SAHA glucuronidation screen, UGT2B11-overexpressing cell homogenate. The class given is in vitro ADME. As to conditions: 400 μg UGT-overexpressing cell homogenate, 1-h incubation.

[2] abbreviates: 400 μg UGT-overexpressing cell homogenate, 1-h incubation.

As usually defined, the Km is the substrate concentration at which the rate is half of its maximum. `O=C(CCCCCCC(=O)Nc1ccccc1)NO` [SAHA, Suberoylanilide hydroxamic acid]: the apparent terminal half-life in series [1] is on record as ~ 1.8 hours. Further, on UGT1A10 (setting [2]), the “glucuronidation against SAHA (screen)” value was “high levels of glucuronidation”. On UGT1A10 (against SAHA), the “KM of UGT1A10 higher than that observed for UGT2B17” value is listed as 3 fold. Also, the Km at 1 h at UGT1A10 (human, pH 7.5) was 1000 ± 100 µM; at UGT2B7 (human, UGT2B7-overexpressing cell homogenate, pH 7.5) it was greater than 8000 µM. The “glucuronidation activity against SAHA (screen)” value at UGT2B4 and at UGT2B11 was “No detectable glucuronidation activity” throughout. Also, the “glucuronidation against SAHA” value at UGT2B7 (setting [2]) is “detectable levels of glucuronidation”.
